# Experimental data as given in patent US7405205B2, “Antitumor antisense sequences directed against R1 and R2 components of ribonucleotide reductase” (Lorus Therapeutics Inc., priority 1996, dated 2008).
# Legend:
# [1] = test system: LHF hydroxyurea resistant mouse L cells; test: Drug sensitivity by relative colony forming efficiency; format: cell-based
# [2] = test system: RP3/ASR2 cells (RP3 with R2 antisense vector); test: as above; format: cell-based, mouse
# HeLa 1 mM cells = test: Sensitisation to PALA and MTX by antisense, relative colony forming efficiency; format: cell-based, human; settings: without AS-II-2229B-20
# Description: (§1) Drug Selections: Cells ranging in numbers from 500 to 1-2×10^5 were added to 100 mm tissue culture plates in growth medium containing 10% dialyzed fetal bovine serum, and in the absence or presence of drug [Huang et al., 1995a; Choy et al., 1988]. The culture medium was replaced with fresh medium every week for two to three weeks. Surviving cells were visualized by methylene blue staining, and colonies of about 50 cells or more were scored [Huang et al., 1995a]. The relative colony forming efficiency was defined as the ability to produce colonies in the presence of a drug divided by that ability in the absence of drug.
# (§2) Colony forming efficiency was determined as previously reported [Huang and Wright, 1994]. The cells were cultured for 24 hours at 37° C. in growth medium with 10% fetal bovine serum. The cells were washed in 5 ml phosphate buffered saline, pH 7.2, once prior to lipofectin+/−oligonucleotide treatment.
# (§3) The oligonucleotides being tested were added to cell cultures in the presence of 2.5 μg of DOTMA/DOPE (Lipofectin; Life Technologies, Inc.) for four hours. The oligonucleotide was tested at 0.2 μM unless otherwise indicated. Controls were the cultures treated with lipofectin but without the oligonucleotide. After 4 hours the medium containing the oligonucleotide was removed and washed with 5 ml of growth medium. The cells were then cultured in growth medium containing 10% fetal bovine serum for seven to ten days. Surviving cells were visualized by methylene blue staining, and colonies were scored. In some experiments cell aliquotes were removed from the culture and viability was determined using the trypan blue exclusion test [Phillips, 1973]. Results were analyzed as percent of surviving cells compared to control cells.
# (§4) Based on Example 2, treatment of human tumor cells with very low concentrations of short antisense sequences was tested to determine if these constructs could sensitize the tumor cells to inhibitory effects of other chemotherapeutic drugs. […] These observations indicate that antisense compounds targeting the R2 message can act synergistically with well known chemotherapeutic agents.
# HeLa S3 cells = test: as above; format: cell-based, human; settings: PALA 20 μM, without AS-II-2229B-20
# Description: as §1, §2, §3, §4
# [3] = test system: RP3/SH cells (10T½, H-ras and mutant p53); test: Drug sensitivity by relative colony forming efficiency; format: cell-based, mouse
# [4] = test system: B3/SH cells (BALB/c 3T3, empty vector); test: as above; format: cell-based, mouse
# [5] = test system: N/R2-4 cells (NIH-3T3, R2 expression vector); test: as above; format: cell-based, mouse
# [6] = test system: H4 (H-4) hydroxyurea resistant mouse L cells; test: as above; format: cell-based
# [7] = test system: RP6/ASR2 cells (RP6 with R2 antisense vector); test: as above; format: cell-based, mouse
# [8] = test system: wild type (W.T.) mouse L cells; test: as above; format: cell-based
# [9] = test system: RP6/SH cells (10T½, H-ras and mutant p53); test: as above; format: cell-based, mouse
# [10] = test system: B3/mR2 cells (BALB/c 3T3, R2 expression vector); test: as above; format: cell-based, mouse
# [11] = test system: B3/R2c2 cells (clone of B3/mR2); test: as above; format: cell-based, mouse
# [12] = test system: N/SH cells (NIH-3T3, empty vector); test: as above; format: cell-based, mouse
# [13] = test system: N/R2+ASR2 cells (NIH-3T3, R2 and R2 antisense vectors); test: as above; format: cell-based, mouse
# [14] = test system: H2 (H-2) hydroxyurea resistant mouse L cells; test: as above; format: cell-based
# [15] = test system: SC2 hydroxyurea resistant mouse L cells; test: as above; format: cell-based
structure (smiles),measurement,setting,value
"O=C(O)C[C@H](NC(=O)CP(=O)(O)O)C(=O)O [PALA, N-(phosphonacetyl)-L-aspartate]",Relative Colony Forming Efficiencies,[1]; PALA 20 μM,233.3 ± 3.6 × 10^4
same,Relative Colony Forming Efficiencies,[1]; PALA 30 μM,78.8 ± 7.9 × 10^4
same,Relative Colony Forming Efficiencies,[1]; PALA 40 μM,46.5 ± 9.9 × 10^4
same,Relative Colony Forming Efficiencies,[1]; PALA 50 μM,25.0 ± 6.8 × 10^4
same,Relative Colony Forming Efficiencies,[1]; PALA 60 μM,10.7 ± 3.0 × 10^4
same,Relative Colony Forming Efficiencies,[2]; PALA 10 μM,1183 ± 384 × 10^4
same,Relative Colony Forming Efficiencies,[2]; PALA 20 μM,86.1 ± 32.9 × 10^4
same,Relative Colony Forming Efficiencies,[2]; PALA 30 μM,19.5 ± 4.7 × 10^4
same,Relative Colony Forming Efficiencies,[2]; PALA 40 μM,4.7 ± 0.6 × 10^4
same,Relative Colony Forming Efficiencies,[2]; PALA 50 μM,2.1 ± 0.8 × 10^4
same,Relative Colony Forming Efficiencies,[2]; PALA 60 μM,0.3 ± 0.2 × 10^4
same,Relative colony Forming Efficiency,HeLa 1 mM cells; PALA 20 μM,377 ± 21
same,Relative colony Forming Efficiency,HeLa 1 mM cells; PALA 30 μM,311 ± 9.5
same,Relative colony Forming Efficiency,HeLa S3 cells,350 ± 50
same,Relative Colony Forming Efficiencies,[3]; PALA 10 μM,2569 ± 338 × 10^4
same,Relative Colony Forming Efficiencies,[3]; PALA 20 μM,123.4 ± 19.3 × 10^4
same,Relative Colony Forming Efficiencies,[3]; PALA 30 μM,45.2 ± 7.8 × 10^4
same,Relative Colony Forming Efficiencies,[3]; PALA 40 μM,15.0 ± 4.9 × 10^4
same,Relative Colony Forming Efficiencies,[3]; PALA 50 μM,9.3 ± 3.6 × 10^4
same,Relative Colony Forming Efficiencies,[3]; PALA 60 μM,3.9 ± 1.6 × 10^4
same,Relative Colony Forming Efficiencies,[4]; PALA 10 μM,17.9 ± 11.0 × 10^4
same,Relative Colony Forming Efficiencies,[4]; PALA 20 μM,0.39 ± 0.18 × 10^4
same,Relative Colony Forming Efficiencies,[4]; PALA 40 μM,0.35 ± 0.01 × 10^4
same,Relative Colony Forming Efficiencies,[4]; PALA 50 μM,0.24 ± 0.14 × 10^4
same,Relative Colony Forming Efficiencies,[4]; PALA 60 μM,0.12 ± 0.05 × 10^4
same,Relative Colony Forming Efficiencies,[4]; PALA 80 μM,0.17 ± 0.08 × 10^4
same,Relative Colony Forming Efficiencies,[5]; PALA 10 μM,6.22 ± 3.3 × 10^4
same,Relative Colony Forming Efficiencies,[5]; PALA 15 μM,10.0 ± 5.5 × 10^4
same,Relative Colony Forming Efficiencies,[5]; PALA 20 μM,1.71 ± 1.2 × 10^4
same,Relative Colony Forming Efficiencies,[5]; PALA 25 μM,0.8 ± 0.7 × 10^4
same,Relative Colony Forming Efficiencies,[5]; PALA 30 μM,1.03 ± 0.07 × 10^4
same,Relative Colony Forming Efficiencies,[5]; PALA 40 μM,0.14 ± 0.08 × 10^4
same,Relative Colony Forming Efficiencies,[6]; PALA 20 μM,322.5 ± 36.4 × 10^4
same,Relative Colony Forming Efficiencies,[6]; PALA 30 μM,84.0 ± 30.0 × 10^4
same,Relative Colony Forming Efficiencies,[6]; PALA 40 μM,43.3 ± 9.6 × 10^4
same,Relative Colony Forming Efficiencies,[6]; PALA 50 μM,23.2 ± 0.5 × 10^4
same,Relative Colony Forming Efficiencies,[6]; PALA 60 μM,11.1 ± 1.4 × 10^4
same,Relative Colony Forming Efficiencies,[7]; PALA 10 μM,2083 ± 960 × 10^4
same,Relative Colony Forming Efficiencies,[7]; PALA 20 μM,368 ± 154 × 10^4
same,Relative Colony Forming Efficiencies,[7]; PALA 30 μM,316 ± 171 × 10^4
same,Relative Colony Forming Efficiencies,[7]; PALA 40 μM,116 ± 54 × 10^4
same,Relative Colony Forming Efficiencies,[7]; PALA 50 μM,41.7 ± 23 × 10^4
same,Relative Colony Forming Efficiencies,[7]; PALA 60 μM,13.2 ± 6.3 × 10^4
same,Relative Colony Forming Efficiencies,[8]; PALA 20 μM,172.3 ± 126.3 × 10^4
same,Relative Colony Forming Efficiencies,[8]; PALA 30 μM,50.3 ± 20.5 × 10^4
same,Relative Colony Forming Efficiencies,[8]; PALA 40 μM,15.0 ± 7.0 × 10^4
same,Relative Colony Forming Efficiencies,[8]; PALA 50 μM,3.6 ± 1.1 × 10^4
same,Relative Colony Forming Efficiencies,[8]; PALA 60 μM,1.3 ± 0.4 × 10^4
same,Relative Colony Forming Efficiencies,[9]; PALA 10 μM,4619 ± 648 × 10^4
same,Relative Colony Forming Efficiencies,[9]; PALA 20 μM,1220 ± 255 × 10^4
same,Relative Colony Forming Efficiencies,[9]; PALA 30 μM,450 ± 129 × 10^4
same,Relative Colony Forming Efficiencies,[9]; PALA 40 μM,271 ± 68 × 10^4
same,Relative Colony Forming Efficiencies,[9]; PALA 50 μM,109 ± 23 × 10^4
same,Relative Colony Forming Efficiencies,[9]; PALA 60 μM,55.5 ± 13 × 10^4
same,Relative Colony Forming Efficiencies,[10]; PALA 10 μM,965.0 ± 529.7 × 10^4
same,Relative Colony Forming Efficiencies,[10]; PALA 20 μM,120.1 ± 28.4 × 10^4
same,Relative Colony Forming Efficiencies,[10]; PALA 40 μM,25.0 ± 4.6 × 10^4
same,Relative Colony Forming Efficiencies,[10]; PALA 50 μM,27.6 ± 8.9 × 10^4
same,Relative Colony Forming Efficiencies,[10]; PALA 60 μM,25.0 ± 6.4 × 10^4
same,Relative Colony Forming Efficiencies,[10]; PALA 80 μM,27.1 ± 6.75 × 10^4
same,Relative Colony Forming Efficiencies,[11]; PALA 10 μM,1230.0 ± 97.0 × 10^4
same,Relative Colony Forming Efficiencies,[11]; PALA 20 μM,55.1 ± 15.6 × 10^4
same,Relative Colony Forming Efficiencies,[11]; PALA 40 μM,20.2 ± 6.8 × 10^4
same,Relative Colony Forming Efficiencies,[11]; PALA 50 μM,15.9 ± 4.0 × 10^4
same,Relative Colony Forming Efficiencies,[11]; PALA 60 μM,18.7 ± 5.3 × 10^4
same,Relative Colony Forming Efficiencies,[11]; PALA 80 μM,20.0 ± 4.9 × 10^4
same,Relative Colony Forming Efficiencies,[12]; PALA 10 μM,5.28 ± 1.5 × 10^4
same,Relative Colony Forming Efficiencies,[12]; PALA 15 μM,5.83 ± 2.7 × 10^4
same,Relative Colony Forming Efficiencies,[12]; PALA 20 μM,0.30 ± 0.1 × 10^4
same,Relative Colony Forming Efficiencies,[12]; PALA 25 μM,0.53 ± 0.3 × 10^4
same,Relative Colony Forming Efficiencies,[12]; PALA 30 μM,0.48 ± 0.08 × 10^4
same,Relative Colony Forming Efficiencies,[12]; PALA 40 μM,0.27 ± 0.2 × 10^4
same,Relative Colony Forming Efficiencies,[13]; PALA 10 μM,1.81 ± 0.8 × 10^4
same,Relative Colony Forming Efficiencies,[13]; PALA 15 μM,0.58 ± 0.3 × 10^4
same,Relative Colony Forming Efficiencies,[13]; PALA 20 μM,0.04 ± 0.04 × 10^4
same,Relative Colony Forming Efficiencies,[13]; PALA 25 μM,0.04 ± 0.04 × 10^4
same,Relative Colony Forming Efficiencies,[13]; PALA 30 μM,0.12 ± 0.12 × 10^4
same,Relative Colony Forming Efficiencies,[13]; PALA 40 μM,0.04 ± 0.04 × 10^4
same,Relative Colony Forming Efficiencies,[14]; PALA 20 μM,406.7 ± 202.2 × 10^4
same,Relative Colony Forming Efficiencies,[14]; PALA 30 μM,39.4 ± 16.4 × 10^4
same,Relative Colony Forming Efficiencies,[14]; PALA 40 μM,23.3 ± 10.4 × 10^4
same,Relative Colony Forming Efficiencies,[14]; PALA 50 μM,7.9 ± 1.7 × 10^4
same,Relative Colony Forming Efficiencies,[14]; PALA 60 μM,3.6 ± 0.6 × 10^4
same,Relative Colony Forming Efficiencies,[15]; PALA 20 μM,850.1 ± 325.2 × 10^4
same,Relative Colony Forming Efficiencies,[15]; PALA 30 μM,187.6 ± 46.4 × 10^4
same,Relative Colony Forming Efficiencies,[15]; PALA 40 μM,37.5 ± 8.7 × 10^4
same,Relative Colony Forming Efficiencies,[15]; PALA 50 μM,47.5 ± 35.8 × 10^4
same,Relative Colony Forming Efficiencies,[15]; PALA 60 μM,17.6 ± 1.2 × 10^4
